Here are results for seven compounds from patent US7056947B2, “Aza-peptide epoxides” (Georgia Tech Research Corp., priority 2002, dated 2006).

Some results are limits rather than exact numbers.

Common to all, as to format: biochemical
The target of test [1] is dipeptidyl peptidase I (DPPI, cathepsin C) (Homo sapiens, UniProt P53634). Description: Inhibition of DPPI.
A further test deals with T1, papain (Carica papaya, UniProt P00784).
T1 sequence (P00784 134-345): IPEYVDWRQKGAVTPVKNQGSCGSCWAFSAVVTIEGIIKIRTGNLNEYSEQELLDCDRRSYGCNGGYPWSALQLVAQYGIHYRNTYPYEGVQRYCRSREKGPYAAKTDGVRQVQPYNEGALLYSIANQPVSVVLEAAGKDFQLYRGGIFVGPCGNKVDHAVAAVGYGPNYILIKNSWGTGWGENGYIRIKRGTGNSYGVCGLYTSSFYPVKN
Description: Inhibition of papain, incubation method. As to conditions: second-order rate constant, NI = no inhibition; for kinact/KI: pH 7.5, read-out: kobs/[I] papain. Put shortly:
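Incubation-method inactivation: plots of ln vt/vo against time gave pseudo-first-order rate constants. Activity monitored at 405 nm with Z-Phe-Arg-pNA substrate (53.7 μM); papain at about 0.29 mg/mL in pH 7.5 Hepes (50 mM) containing DTT and EDTA (2.5 mM each).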

A further test addresses cathepsin B (Homo sapiens, UniProt P07858). Description: Inhibition of cathepsin B, incubation method. Particulars: second-order rate constant, NI = no inhibition; for kinact/KI: pH 6, read-out: kobs/[I] cathepsin B. An excerpt: The release of 7-amino-4-methylcoumarin was monitored (λex=360 nm, λem=465 nm) using a Tecan Spectra Fluor microplate reader. Pseudo first-order inactivation rate constants were obtained from plots of In vt/vo versus time.

The target of test [2] is T2, schistosome legumain SmAE (Schistosoma mansoni asparaginyl endopeptidase) (Schistosoma mansoni, UniProt P09841, N192C, form not given).
T2 sequence (P09841 1-429 N192C): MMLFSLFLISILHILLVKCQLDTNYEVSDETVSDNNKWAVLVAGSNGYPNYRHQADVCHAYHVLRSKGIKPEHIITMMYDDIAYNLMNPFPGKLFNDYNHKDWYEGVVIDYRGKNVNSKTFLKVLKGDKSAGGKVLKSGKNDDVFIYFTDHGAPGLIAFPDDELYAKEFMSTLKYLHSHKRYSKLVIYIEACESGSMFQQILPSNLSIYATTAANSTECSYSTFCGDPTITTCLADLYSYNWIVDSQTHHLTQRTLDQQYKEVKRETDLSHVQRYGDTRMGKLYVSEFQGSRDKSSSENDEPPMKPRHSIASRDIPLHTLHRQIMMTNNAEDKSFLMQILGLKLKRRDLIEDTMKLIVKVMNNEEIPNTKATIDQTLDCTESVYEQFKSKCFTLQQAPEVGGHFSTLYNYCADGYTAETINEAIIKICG
Description: Schistosome legumain (SmAE) IC50 assay. Particulars: read-out: Schistosome Legumain IC50; preincubated 20 minutes at room temperature, substrate Cbz-Ala-Ala-Asn-AMC; NI = no inhibition. On the procedure:
Studies with the aza-peptide epoxides using the schistosome legumain SmAE (Schistosoma mansoni asparaginyl endopeptidase) were also performed. The enzymatically pure enzyme (zymogen form) was expressed in Pichia without interference from other proteases (ref FEBS lett 2000 466 244–248 Caffrey). The actual active site enzyme concentration is unknown. The lyophilized enzyme (50–100 mg) was reconstituted in 1.5 mL 0.5 M sodium acetate, pH 4.5 containing 4 mM DTT, and left to stand at 37° C. for 3–4 hours to allow for auto-activation of the zymogen. In a black 96-well microtiter plate, 50 uL of activated enzyme was added to an equal volume of 0.1 M citrate-phosphate buffer pH 6.8 containing 4 mM DTT. Inhibitor stock solutions (20 mM) were prepared in DMSO. Serial dilutions (using water) of inhibitor were added (as 1 uL aliquots) to yield concentrations of between 2 and 0.00002 uM inhibitor. The inhibitors were preincubated with the protease at room temperature for 20 minutes before the assay (IC50s were the same when incubated for only 5 minutes). After incubating various inhibitor concentrations with enzyme, 100 uL of the same buffer containing 20 uM substrate (Cbz-Ala-Ala-Asn-AMC) was added to the wells and the reaction monitored at room temperature with linear kinetics up to 20 minutes. Inhibitors are tested in duplicate. A plot of the RFU/min versus the inhibitor concentration [μM] permitted calculation of an IC50 value and estimation of the kobs/[I].

For the next test, the target named is granzyme B (Homo sapiens, UniProt P10144). Description: Granzyme B assay. As to conditions: preliminary assays, inhibitor 5 mM stock incubated 1 hour, substrate IETD-pNA. On the procedure: Granzyme B. Assays with granzyme B were also performed. In the preliminary assays, the inhibitor (10 μL, 5 mM stock solution in DMSO) was incubated with granzyme B (90 μL) for 1 hour. After the incubation period, to these wells was added IETD-pNA (100 μL) and the rate was monitored at 405 nm.
Chain of granzyme B (P10144 21-247, species assumed): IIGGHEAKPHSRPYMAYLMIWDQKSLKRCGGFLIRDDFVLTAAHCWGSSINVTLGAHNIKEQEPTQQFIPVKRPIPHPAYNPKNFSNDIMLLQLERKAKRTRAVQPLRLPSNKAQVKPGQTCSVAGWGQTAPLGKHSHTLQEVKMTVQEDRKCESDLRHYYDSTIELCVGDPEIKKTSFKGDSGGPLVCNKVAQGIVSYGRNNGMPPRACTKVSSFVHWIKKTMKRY

For another test, the target named is porcine pepsin (Sus scrofa, UniProt P00791). Description: Aspartyl protease assay, pepsin. As to conditions: preincubated 20 minutes, pH 3.5. As to the method:
(§1) Aspartyl Proteases. Assays with the following aspartyl proteases were performed: porcine pepsin, human cathepsin D, plasmepsin 2 (from P. falciparum), and the secreted aspartic proteinase 2 (SAP-2) from Candida albicans. The inhibitors were also assayed with HIV-1 protease. The inhibitors were preincubated for 30 minutes with HIV-1 protease and 20 minutes with the other enzymes. Substrate was then added and the substrate hydrolysis was monitored.

The target of the next test is plasmepsin 2 (Plasmodium falciparum, UniProt P46925). Briefly: Aspartyl protease assay, plasmepsin 2. As to conditions: preincubated 20 minutes, pH 4.5. On the procedure: as §1
Chain of plasmepsin 2 (P46925 125-453): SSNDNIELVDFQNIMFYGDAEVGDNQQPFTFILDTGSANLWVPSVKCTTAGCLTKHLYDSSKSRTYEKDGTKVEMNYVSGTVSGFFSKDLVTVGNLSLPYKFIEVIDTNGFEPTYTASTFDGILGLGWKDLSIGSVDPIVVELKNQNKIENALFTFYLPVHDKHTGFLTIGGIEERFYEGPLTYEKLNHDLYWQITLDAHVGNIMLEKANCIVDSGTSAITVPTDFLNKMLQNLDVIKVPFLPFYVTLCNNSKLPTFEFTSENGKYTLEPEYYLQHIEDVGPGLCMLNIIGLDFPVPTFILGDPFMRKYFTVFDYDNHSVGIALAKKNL
The next test deals with HIV-1 protease (Human immunodeficiency virus type 1 group M subtype B, UniProt P04585). Briefly: Aspartyl protease assay, HIV-1 protease. As to conditions: preincubated 30 minutes. As to the method:
as §1

Test [3] concerns the target secreted aspartic proteinase 2 (SAP-2) (Candida albicans, UniProt P0DJ06). Description: Aspartyl protease assay, SAP-2. Particulars: preincubated 20 minutes, pH 4.5. As to the method:
as §1

A further test concerns the target human cathepsin D (Homo sapiens, UniProt P07339). Description: Aspartyl protease assay, cathepsin D. Particulars: preincubated 20 minutes, pH 3.5. As to the method: as §1

Chain of dipeptidyl peptidase I (DPPI, cathepsin C) (P53634 25-463, species assumed): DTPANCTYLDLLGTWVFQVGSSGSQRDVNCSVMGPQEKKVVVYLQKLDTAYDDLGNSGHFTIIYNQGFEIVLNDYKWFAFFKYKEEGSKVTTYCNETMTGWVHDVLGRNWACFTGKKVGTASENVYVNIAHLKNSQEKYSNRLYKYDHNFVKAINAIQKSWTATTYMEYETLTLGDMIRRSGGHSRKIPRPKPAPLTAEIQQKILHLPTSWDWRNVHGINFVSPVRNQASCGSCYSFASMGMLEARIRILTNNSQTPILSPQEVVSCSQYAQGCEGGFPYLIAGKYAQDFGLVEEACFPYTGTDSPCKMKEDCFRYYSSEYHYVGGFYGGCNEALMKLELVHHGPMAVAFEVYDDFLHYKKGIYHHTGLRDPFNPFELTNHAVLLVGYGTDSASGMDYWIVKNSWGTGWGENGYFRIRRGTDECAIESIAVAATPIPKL
Chain of porcine pepsin (P00791 60-385): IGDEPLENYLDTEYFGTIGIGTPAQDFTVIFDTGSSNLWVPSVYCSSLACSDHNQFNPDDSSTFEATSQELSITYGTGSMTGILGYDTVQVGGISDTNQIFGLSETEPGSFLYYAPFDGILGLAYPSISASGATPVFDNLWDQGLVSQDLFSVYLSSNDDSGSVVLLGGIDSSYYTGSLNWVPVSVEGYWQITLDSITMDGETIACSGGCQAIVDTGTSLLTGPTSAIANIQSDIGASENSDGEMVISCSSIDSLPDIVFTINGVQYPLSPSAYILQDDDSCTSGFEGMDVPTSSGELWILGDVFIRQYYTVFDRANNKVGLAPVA
Chain of secreted aspartic proteinase 2 (SAP-2) (P0DJ06 57-398): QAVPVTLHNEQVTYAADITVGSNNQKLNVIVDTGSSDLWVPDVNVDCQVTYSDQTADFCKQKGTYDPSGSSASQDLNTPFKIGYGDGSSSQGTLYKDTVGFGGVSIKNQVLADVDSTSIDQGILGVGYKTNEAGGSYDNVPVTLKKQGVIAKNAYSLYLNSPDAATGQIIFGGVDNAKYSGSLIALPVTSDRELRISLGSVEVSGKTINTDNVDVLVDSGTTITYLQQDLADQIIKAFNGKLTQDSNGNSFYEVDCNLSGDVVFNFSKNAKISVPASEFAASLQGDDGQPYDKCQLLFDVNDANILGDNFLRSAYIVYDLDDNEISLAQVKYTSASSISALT
Chain of human cathepsin D (P07339 65-412): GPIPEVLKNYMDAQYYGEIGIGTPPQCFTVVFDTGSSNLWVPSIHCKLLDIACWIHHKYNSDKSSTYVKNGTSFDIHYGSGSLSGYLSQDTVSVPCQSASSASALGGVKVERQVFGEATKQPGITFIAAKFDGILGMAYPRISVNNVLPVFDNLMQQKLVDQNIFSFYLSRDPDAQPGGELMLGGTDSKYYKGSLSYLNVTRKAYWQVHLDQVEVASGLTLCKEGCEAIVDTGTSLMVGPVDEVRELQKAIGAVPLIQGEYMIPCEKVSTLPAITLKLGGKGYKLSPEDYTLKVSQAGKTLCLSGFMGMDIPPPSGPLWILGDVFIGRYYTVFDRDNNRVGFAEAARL

Take `CCCC[C@H](NC(=O)OC(C)(C)C)C(=O)NN(CCc1ccccc1)C(=O)[C@@H]1O[C@H]1C(=O)OCC` (relative stereo) [Boc-Nle-AHph-trans-EP-COOEt, trans-3-(N^2-(N-tert-Butoxycarbonylnorleucyl)-N^1-phenylethylhydrazinocarbonyl)oxirane-2-carboxylic Acid Ethyl Ester]: the kinact/KI in [1] (read-out: kobs/[I] DPPI) turned out to be 0.7 M⁻¹ s⁻¹; at papain it was 1.6 M⁻¹ s⁻¹; on cathepsin B, 1.3 M⁻¹ s⁻¹.
By IC50 is commonly meant the concentration that inhibits the measured activity by half. As to `CC(NC(=O)OCc1ccccc1)C(=O)NC(C)C(=O)NN(CC(N)=O)C(=O)C1OC1C(=O)NCc1ccccc1` [12d, (2S,3S)-2-(2-Benzylcarbamoyl)-3-(N^2-(N-benzyloxycarbonylalanylalanyl)-N^1-carbamoylmethylhydrazinocarbonyl)oxirane], the half-maximal inhibitory concentration (IC50) in [2] was over 2000 nM.
On to `CC(NC(=O)OCc1ccccc1)C(=O)NC(C)C(=O)NN(CC(N)=O)C(=O)C1OC1C(=O)NCCc1ccccc1` [12e, (2S,3S)-2-(2-Phenethylcarbamoyl)-3-(N^2-(N -benzyloxycarbonylalanylalanyl)-N^1-carbamoylmethylhydrazinocarbonyl)oxirane], for which the IC50 in [2] was over 2000 nM.
As for `CC(NC(=O)[C@@H]1O[C@H]1C(=O)N(CC(N)=O)NC(=O)[C@H](C)NC(=O)[C@H](C)NC(=O)OCc1ccccc1)C(=O)NCc1ccccc1` (stereo partly drawn) [12f, (2R,3R)-2-(1-Benzylcarbamoylethylcarbamoyl)-3-(N^2-(N-benzyloxycarbonylalanylalanyl)-N^1-carbamoylmethylhydrazinocarbonyl)oxirane], the IC50 in test [2] was over 2000 nM.
As for `CCOC(=O)[C@H]1O[C@@H]1C(=O)N(CC(N)=O)NC(=O)[C@H](C)NC(=O)[C@H](C)NC(=O)OCc1ccccc1` [Cbz-Ala-Ala-AAsn-(2S, 3S)-EP-COOEt, (2S,3S)-3-(N^2-(N-Benzyloxycarbonylalanylalanyl)-N^1-carbamoylmethylhydrazinocarbonyl)oxirane-2-carboxylic Acid Ethyl Ester], the “inhibition of granzyme B” value on granzyme B is listed as “no inhibition”. Further, on porcine pepsin, the “inhibition of porcine pepsin” value was “less than 20%”. The kinact/KI on papain was found to be 4 M⁻¹ s⁻¹; on cathepsin B, 6 M⁻¹ s⁻¹. The “inhibition of plasmepsin 2” value against plasmepsin 2 was “less than 20%”. Also, the “inhibition of HIV-1 protease” value on HIV-1 protease is reported as “less than 20%”. The “inhibition of SAP-2” value in test [3] is “less than 20%”. At human cathepsin D, the “inhibition of human cathepsin D” value is recorded as “less than 20%”.
“trans-3-(N-(N-tert-Butoxycarbonylnorvalyl)-N^1-phenylethylhydrazinocarbonyl)oxirane-2-carboxylic Acid Ethyl Ester [Boc-Nva-AHph-trans-EP-COOEt]”: the “kobs/[I] DPPI” value in [1] came out at 0.5 M⁻¹ s⁻¹. The “kobs/[I] papain” value at papain came out at 1.4 M⁻¹ s⁻¹. Moreover, the “kobs/[I] cathepsin B” value at cathepsin B is 2.7 M⁻¹ s⁻¹.
Consider “trans-3-(N^2-Norvalyl)-N^1-phenylethylhydrazinocarbonyl)-1-(2-phenylethyl)oxirane Trifluoroacetate Salt [Nva-AHph-trans-EP-CH2CH2Ph.TFA]”, for which the “kobs/[I] DPPI” value in test [1] is 0.1 M⁻¹ s⁻¹.
